Patent US20170000902A1, “EGFR-TARGETED NANOPARTICLES” (CALIFORNIA INSTITUTE OF TECHNOLOGY, priority 2014, published 2017)

Tested on: EGFR mRNA
Assay: siEGFR knock down of EGFR mRNA expression
Assay type: cell-based
Settings: 50 picomolar concentration of siRNA; expression knocked down to this level
From the text: Nanoparticles were designed to specifically target EGFR-positive non-small cell lung cancer (NSCLC) cells and deliver siRNA to hinder EGFR expression. The nanoparticles have 4 primary components (see FIG. 1): • 1. A biocompatible cationic mucic acid polymer (cMAP) that encapsulates siRNA with a charge ratio (+/−) of 1; • 2. 5-nitrophenyl boronic acid-mPEG (5-nPBA-mPEG), which binds to cMAP through boronic acids' interaction with diols present on cMAP, to form a coating of methoxy-polyethylene glycol (mPEG) in order to ensure particle stability in serum; • 3. Cetuximab, the targeting agent for the particle, also attached to cMAP through a 5-nitrophenyl boronic acid-PEG entity; and • 4. siRNA against EGFR (siEGFR), able to knock down EGFR mRNA expression to 20% at a 50 picomolar concentration (see SEQ ID NO: 1). The resulting nanoparticles are cetuximab-conjugated cMAP-siEGFR nanoparticles.

siEGFR: siRNA against EGFR, SEQ ID NO: 1 bound to SEQ ID NO: 2 (chain 1 UAAUUUCCAAAUUCCCAAGGAC; chain 2 CCUUGGGAAUUUGGAAAUUAUA; listed as RNA, chemistry not given here)
EGFR mRNA expression after knock down: 20%
